# Source: patent US10835572B2, “Composition for external application” (ROHTO PHARMACEUTICAL CO., LTD., priority 2014, dated 2020)
# Experiment: Discoloration on storage: rate of increase in ΔE*ab (color difference meter)
# Assay type: physicochemical
# Settings: stored 4 days at 60° C. under protection from light; FIG. 4-8
# Procedure: 20 ml aliquots of the compositions of the examples and comparative examples were filled into a glass bottle followed by determination of the initial ΔE*ab(0) value with a color difference meter (Spectrophotometer Model CM-5, Konica Minolta). At this time, purified water was used for the reference color. ΔE*ab(0) values are represented by the equation indicated below and used as an indicator to represent the degree of coloring of the compositions of the examples and comparative examples. ΔE*ab={(ΔL*)^2+(Δa*)^2+(Δb*)^2}^1/2 [Equation 1]
# The L* value (ΔL*) is a value relating to lightness, the a* value (Δa*) is a value relating to red/green opponent colors in both directions, and the b* value (Δb*) is a value relating to blue/yellow opponent colors in both directions. The compositions of the aforementioned examples and comparative examples were each stored (under protection from light) at 40° C., 50° C. and 60° C. and then taken out after 4 days followed by determination of the ΔE*ab(4) value with the aforementioned color difference meter.
# The rate of increase in the ΔE*ab values attributable to being stored for 4 days at the aforementioned temperatures was determined using the equation indicated below. The term “(D65)” in the equation indicates the use of Illuminant D65. Rate of increase in ΔE*ab(D65)=ΔE*ab(65)(4)/[…]
compound,measurement,value
O=C1O[C@H]([C@@H](O)CO)C(O)=C1O[C@H]1O[C@H](CO)[C@@H](O)[C@H](O)[C@H]1O [ascorbyl glucoside],"discoloration, rate of increase in ΔE*ab (in words)",discoloration was determined to not occur
